Laboratory results taken from ChEMBL document CHEMBL1152687, “Synthesis and biological evaluation of the metabolites of 2-(1-{3-[(6-chloronaphthalen-2-yl)sulfonyl]propanoyl}piperidin-4-yl)-5-methyl-1,2-dihydro-3H-imidazo[1,5-c]imidazol-3-one” (Bioorg Med Chem, 2009).

Columns and labels:
[1] = biological target: Coagulation factor X (Homo sapiens, UniProt P00742); test: Inhibition of human factor 10a by para-nitroanilide release assay
[2] = Oral bioavailability in cynomolgus monkey at 1 mg/kg, po; format: ADME, organism-based, Macaca fascicularis; conditions: in vivo
[3] = Plasma concentration in cynomolgus monkey at 1 mg/kg, po after 4 hrs; format: ADME, organism-based, Macaca fascicularis; set-up: dose 1 mg/kg, route oral
[4] = biological target: Plasminogen (Homo sapiens, UniProt P00747); test: Inhibition of human plasmin by para-nitroanilide release assay
[5] = Plasma concentration in cynomolgus monkey at 1 mg/kg, po after 2 hrs; format: ADME, organism-based, Macaca fascicularis; set-up: dose 1 mg/kg, route oral
[6] = AUC (0 to 10 hrs) in cynomolgus monkey at 1 mg/kg, po; format: ADME, organism-based, Macaca fascicularis; set-up: time < 10 hr, dose 1 mg/kg, route oral; conditions: plasma
[7] = Mean residence time in cynomolgus monkey at 1 mg/kg, po; format: ADME, organism-based, Macaca fascicularis; set-up: dose 1 mg/kg, route oral; conditions: in vivo
[8] = biological target: Tissue-type plasminogen activator (Homo sapiens, UniProt P00750); test: Inhibition of human tissue plasminogen activator by para-nitroanilide release assay
[9] = Cmax in cynomolgus monkey at 1 mg/kg, po; format: ADME, organism-based, Macaca fascicularis; set-up: dose 1 mg/kg, route oral; conditions: in vivo
[10] = Total clearance in cynomolgus monkey at 0.1 mg/kg, iv; format: ADME, organism-based, Macaca fascicularis; set-up: dose 0.1 mg/kg, route intravenous; conditions: in vivo
[11] = Plasma concentration in cynomolgus monkey at 1 mg/kg, po after 1 hr; format: ADME, organism-based, Macaca fascicularis; set-up: dose 1 mg/kg, route oral
[12] = Volume of distribution at steady state in cynomolgus monkey at 0.1 mg/kg, iv; format: ADME, organism-based, Macaca fascicularis; set-up: dose 0.1 mg/kg, route intravenous; conditions: in vivo, read-out: Vdss
[13] = biological target: Prothrombin (Homo sapiens, UniProt P00734); test: Inhibition of human thrombin by para-nitroanilide release assay
[14] = AUC in cynomolgus monkey at 1 mg/kg, po; format: ADME, organism-based, Macaca fascicularis; set-up: dose 1 mg/kg, route oral; conditions: plasma
[15] = biological target: Trypsin (Homo sapiens, UniProt P07477+P07478+P35030); test: Inhibition of human trypsin by para-nitroanilide release assay; format: protein assay
[16] = Plasma concentration in cynomolgus monkey at 1 mg/kg, po after 10 hrs; format: ADME, organism-based, Macaca fascicularis; set-up: dose 1 mg/kg, route oral

Sequence of Coagulation factor X (P00742 41-179 limits assumed): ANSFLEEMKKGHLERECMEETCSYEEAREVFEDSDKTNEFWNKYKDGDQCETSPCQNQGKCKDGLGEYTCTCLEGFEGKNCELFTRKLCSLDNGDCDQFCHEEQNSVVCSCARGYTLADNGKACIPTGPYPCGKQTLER
Sequence of Coagulation factor X (P00742 235-488 limits assumed): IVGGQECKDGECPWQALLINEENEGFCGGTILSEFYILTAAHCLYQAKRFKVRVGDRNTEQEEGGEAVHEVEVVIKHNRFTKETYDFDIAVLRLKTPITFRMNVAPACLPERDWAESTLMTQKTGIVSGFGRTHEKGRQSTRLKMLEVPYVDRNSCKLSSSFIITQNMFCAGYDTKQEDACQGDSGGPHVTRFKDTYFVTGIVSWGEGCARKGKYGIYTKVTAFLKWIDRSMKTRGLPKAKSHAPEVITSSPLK
Sequence of Tissue-type plasminogen activator (P00750 whole entry): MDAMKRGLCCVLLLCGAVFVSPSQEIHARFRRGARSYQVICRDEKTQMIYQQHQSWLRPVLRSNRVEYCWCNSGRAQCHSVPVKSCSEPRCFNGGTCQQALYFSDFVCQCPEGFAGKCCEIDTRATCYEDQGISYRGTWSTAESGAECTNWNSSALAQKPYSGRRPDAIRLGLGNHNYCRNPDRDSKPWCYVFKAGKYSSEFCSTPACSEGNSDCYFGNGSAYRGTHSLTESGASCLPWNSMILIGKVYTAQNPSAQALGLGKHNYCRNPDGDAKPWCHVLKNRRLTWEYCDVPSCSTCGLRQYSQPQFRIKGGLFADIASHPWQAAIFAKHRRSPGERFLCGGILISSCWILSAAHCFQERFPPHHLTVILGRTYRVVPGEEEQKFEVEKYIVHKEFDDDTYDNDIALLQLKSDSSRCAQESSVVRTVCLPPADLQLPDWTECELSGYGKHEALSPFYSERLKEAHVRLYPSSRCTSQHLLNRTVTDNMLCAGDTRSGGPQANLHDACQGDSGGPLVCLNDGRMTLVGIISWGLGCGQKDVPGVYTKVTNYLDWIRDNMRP
Sequence of Plasminogen (P00747 97-580 limits assumed): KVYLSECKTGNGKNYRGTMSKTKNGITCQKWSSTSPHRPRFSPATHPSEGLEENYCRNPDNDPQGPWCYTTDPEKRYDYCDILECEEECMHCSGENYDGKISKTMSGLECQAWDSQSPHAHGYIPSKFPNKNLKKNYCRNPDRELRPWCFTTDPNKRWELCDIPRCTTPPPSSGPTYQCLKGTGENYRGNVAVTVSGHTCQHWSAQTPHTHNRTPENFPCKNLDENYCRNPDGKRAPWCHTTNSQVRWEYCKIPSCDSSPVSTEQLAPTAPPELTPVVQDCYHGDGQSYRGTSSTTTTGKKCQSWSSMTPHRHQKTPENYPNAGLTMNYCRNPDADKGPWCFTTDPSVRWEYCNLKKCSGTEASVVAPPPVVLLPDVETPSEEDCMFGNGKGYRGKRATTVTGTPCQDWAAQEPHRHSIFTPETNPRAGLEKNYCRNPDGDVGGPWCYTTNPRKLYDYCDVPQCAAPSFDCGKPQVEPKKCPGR
Sequence of Plasminogen (P00747 581-810 limits assumed): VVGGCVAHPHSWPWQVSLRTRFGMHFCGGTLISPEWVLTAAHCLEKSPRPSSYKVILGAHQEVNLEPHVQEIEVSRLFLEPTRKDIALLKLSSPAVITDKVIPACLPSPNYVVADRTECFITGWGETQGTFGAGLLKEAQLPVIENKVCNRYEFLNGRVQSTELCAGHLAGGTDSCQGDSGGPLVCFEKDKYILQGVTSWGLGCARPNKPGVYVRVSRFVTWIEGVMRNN

SMILES	IC50 [1] [µM]	concentration at 4 h [3] [ng/mL]	concentration at 2 h [5] [ng/mL]	AUC(0-t) at 10 h [6] [ng·h/mL]	concentration at 1 h [11] [ng/mL]	concentration at 10 h [16] [ng/mL]	also measured
O=C(O)CCS(=O)(=O)c1ccc2cc(Cl)ccc2c1	> 5	–	–	–	–	–	–
O=S(O)c1ccc2cc(Cl)ccc2c1	> 5	–	–	–	–	–	–
O=C(CCS(=O)(=O)c1ccc2cc(Cl)ccc2c1)N1CCC(N2Cc3cnc(CO)n3C2=O)CC1	–	13.3	25	107	16.6	–	bioavailability [2]: 32.3%; Ki [4]: > 60 µM; MRT [7]: 7.56 h; Ki [8]: > 60 µM; Cmax [9]: 60.1 ng/mL; clearance [10]: 11.9 mL/min/kg; Vd [12]: 0.588 L/kg; Ki [13]: 7.8 µM; AUC [14]: 470 ng·h/mL; Ki [15]: > 60 µM
NC1CCN(C(=O)CCS(=O)(=O)c2ccc3cc(Cl)ccc3c2)CC1	> 5	–	–	–	–	–	–
Cc1ncc2n1C(=O)N(C1CCN(C(=O)CCS(=O)(=O)c3ccc4cc(Cl)ccc4c3)CC1)C2	–	65.9	132	583	92.8	9.9	–

The next lines start with results.

IC50 [1] [µM]	concentration at 4 h [3] [ng/mL]	concentration at 2 h [5] [ng/mL]	AUC(0-t) at 10 h [6] [ng·h/mL]	concentration at 1 h [11] [ng/mL]	concentration at 10 h [16] [ng/mL]	SMILES	also measured
0.93	–	–	–	–	–	Cc1ncc2n1C(=O)N(C1CCN(C(=O)C(=O)CS(=O)(=O)c3ccc4cc(Cl)ccc4c3)CC1)C2	–
–	6.5	6.8	44.2	2.7	1.8	Cc1ncc2n1C(=O)N(C1CCN(C(=O)[C@H](O)CS(=O)(=O)c3ccc4cc(Cl)ccc4c3)CC1)C2	bioavailability [2]: 25.4%; Ki [4]: > 60 µM; MRT [7]: 7.05 h; Ki [8]: > 60 µM; Cmax [9]: 30.5 ng/mL; clearance [10]: 14.2 mL/min/kg; Vd [12]: 0.719 L/kg; Ki [13]: 1.9 µM; AUC [14]: 307 ng·h/mL; Ki [15]: > 60 µM
–	91	4.4	54.6	0.8	3.6	Cc1ncc2n1C(=O)N(C1CCN(C(=O)[C@@H](O)CS(=O)(=O)c3ccc4cc(Cl)ccc4c3)CC1)C2	–
